In ChEMBL document CHEMBL1201862, “PubChem BioAssay data set” (2004):
Where “and” joins values, the source holds several entries; their conditions need not be identical. Identical values can stand only once.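 Briefly, cells in 96-well plates were exposed to five compound concentrations for 48 h, and endpoints were estimated by linear interpolation. Here, GI50 denotes the concentration required for 50% inhibition of growth.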 Calls of active or inactive are those of the source. Cut-off read from the data, not from the text of the source: active = GI50 up to about 1.1 µM and inactive = higher.

Tests used:
Experiment in all cases: NCI anticancer screen, dose series, 48 h
786-0 = tested on: 786-0
A549 = tested on: A549
CAKI-1 = tested on: CAKI-1
COLO 205 = tested on: COLO 205
EKVX = tested on: EKVX
HCC 2998 = tested on: HCC 2998
HCT-116 = tested on: HCT-116
HL-60 = tested on: HL-60
HOP-62 = tested on: HOP-62
KM12 = tested on: KM12
MOLT-4 = tested on: MOLT-4
OVCAR-3 = tested on: OVCAR-3
OVCAR-4 = tested on: OVCAR-4
OVCAR-5 = tested on: OVCAR-5
OVCAR-8 = tested on: OVCAR-8
SNB-19 = tested on: SNB-19
SW-620 = tested on: SW-620
TK-10 = tested on: TK-10
UO-31 = tested on: UO-31
Malme-3M = tested on: Malme-3M

Measured: GI50

CC(=O)/C(=C/NC(=S)Nc1ccc(Cl)c(Cl)c1)C(=O)Nc1ccccc1C
inactive: 786-0 35 µM | A549 34.1 µM | CAKI-1 22.3 µM | COLO 205 28.2 µM | EKVX 21.5 µM | HCC 2998 32.3 µM | HCT-116 33.7 µM | HL-60 17.1 µM | HOP-62 33.4 µM | KM12 24.9 µM | MOLT-4 16 µM | OVCAR-3 24.3 µM | OVCAR-4 18.6 µM | OVCAR-5 32 µM | OVCAR-8 18.9 µM | SNB-19 26.8 µM | SW-620 44.1 µM | TK-10 43.8 µM | UO-31 22.3 µM

Oc1ccc(/C=N/c2ccccc2O)cc1
inactive: 786-0 23.3 µM | A549 54.2 µM | CAKI-1 68.1 µM | COLO 205 30.2 µM | EKVX 48 µM | HCC 2998 45.3 µM | HCT-116 50.1 µM | HL-60 12.7 µM | HOP-62 67 µM | KM12 75.3 µM | MOLT-4 51.2 µM | OVCAR-3 40 µM | OVCAR-4 > 100 µM | OVCAR-5 > 100 µM | OVCAR-8 39.4 µM | SNB-19 > 100 µM | SW-620 31.3 µM | TK-10 59.7 µM | UO-31 25.9 µM

O=C(c1ccccc1)c1cccc(C(=O)c2ccccc2)c1
inactive: 786-0 > 100 µM | A549 > 100 µM | CAKI-1 > 100 µM | COLO 205 > 100 µM | EKVX > 100 µM | HCC 2998 > 100 µM | HCT-116 > 100 µM | HOP-62 > 100 µM | KM12 44.1 µM | MOLT-4 67.9 µM | Malme-3M 78.2 µM | OVCAR-3 > 100 µM | OVCAR-4 > 100 µM | OVCAR-8 > 100 µM | SNB-19 > 100 µM | SW-620 > 100 µM | TK-10 > 100 µM | UO-31 37.2 µM

CC(C)=CC(=O)N1CCN(C(=O)C=C(C)C)CC1
inactive: 786-0 > 100 µM | A549 > 100 µM | CAKI-1 > 100 µM | EKVX > 100 µM | HCC 2998 > 100 µM | HCT-116 > 100 µM | HL-60 > 100 µM | HOP-62 > 100 µM | KM12 > 100 µM | MOLT-4 > 100 µM | OVCAR-3 > 100 µM | OVCAR-4 > 100 µM | OVCAR-5 > 100 µM | OVCAR-8 > 100 µM | SNB-19 > 100 µM | SW-620 > 100 µM | TK-10 > 100 µM | UO-31 > 100 µM

CC(=O)OC1COC(N2CCc3ccccc32)C(OC(C)=O)C1OC(C)=O (centres undefined)
inactive: 786-0 > 100 µM | A549 > 100 µM | CAKI-1 > 100 µM | COLO 205 > 100 µM | EKVX > 100 µM and > 57.1 µM | HCC 2998 > 100 µM | HCT-116 > 100 µM | HOP-62 > 100 µM | KM12 > 100 µM | MOLT-4 > 100 µM | Malme-3M > 100 µM | OVCAR-3 > 100 µM | OVCAR-4 > 100 µM | OVCAR-5 > 100 µM | OVCAR-8 > 100 µM | SNB-19 > 100 µM | SW-620 > 100 µM | TK-10 > 100 µM | UO-31 > 58.7 µM

N#Cc1nc(COCCOCc2ccc(F)cc2)oc1N
inactive: 786-0 > 100 µM | A549 > 100 µM | CAKI-1 > 100 µM | COLO 205 > 100 µM | EKVX > 100 µM | HCC 2998 > 100 µM | HCT-116 > 100 µM | HL-60 > 100 µM | HOP-62 > 100 µM | KM12 > 100 µM | MOLT-4 > 100 µM | OVCAR-3 > 100 µM | OVCAR-4 > 100 µM | OVCAR-5 > 100 µM | OVCAR-8 > 100 µM | SW-620 > 100 µM | TK-10 > 100 µM | UO-31 50.4 µM

c1ccc(-c2ccc(-c3ccc(C4=NCCN4)cc3)o2)cc1
inactive: 786-0 1.68 µM | A549 2.64 µM | CAKI-1 2.34 µM | COLO 205 1.73 µM | EKVX 3.37 µM | HCC 2998 1.35 µM | HCT-116 1.77 µM | HL-60 1.79 µM | HOP-62 3.67 µM | KM12 1.92 µM | MOLT-4 1.82 µM | OVCAR-3 5.5 µM | OVCAR-4 6.11 µM | OVCAR-5 2.69 µM | OVCAR-8 3.59 µM | SNB-19 2.4 µM | SW-620 2 µM | TK-10 5.41 µM | UO-31 1.71 µM

CC(C)(C)OC(=O)CC(NC(=O)OC(C)(C)C)C(=O)NC(C(=O)O)C(O)c1ccccc1 (centres undefined)
inactive: 786-0 > 100 µM | A549 > 100 µM | CAKI-1 > 100 µM | COLO 205 > 100 µM | EKVX > 100 µM | HCC 2998 14.3 µM | HCT-116 79.1 µM | HOP-62 > 100 µM | KM12 97.7 µM | MOLT-4 32.4 µM | Malme-3M 90.4 µM | OVCAR-3 > 100 µM | OVCAR-4 > 100 µM | OVCAR-5 > 100 µM | OVCAR-8 > 100 µM | SNB-19 > 100 µM | SW-620 40.3 µM | TK-10 > 100 µM | UO-31 > 100 µM
